We go through 22 compounds from US10344019B2 (priority 2010, dated 2019).

Structures are written as SMILES. Like-named read-outs stand apart in the source and are kept apart here.

What all share (experiment): microbe, parasite or virus in culture
Holding throughout (assay type): cell-based

Assay [1] relates to HCV 1a RLuc cells (dicistronic genotype 1a H77 replicon, RLuc reporter). The following applies: genotype 1a H77 replicon, RLuc reporter, read-out: 1a. As to the method:
(§1) Evaluation of cell-based anti-HCV activity: Antiviral potency (EC50) was determined using a Renilla luciferase (RLuc)-based HCV replicon reporter assay. To perform the assay for genotype 1 and 2a JFH-1, HCV 1b RLuc cells (harboring a dicistronic genotype 1b Con1 replicon that encodes a RLuc reporter), or HCV 1a RLuc cells (harboring a dicistronic genotype 1a H77 replicon that encodes a RLuc reporter), or HCV 2a JFH-1 Rluc cells (harboring a dicistronic genotype 2a JFH-1 replicon that encodes a RLuc reporter) were dispensed into 384-well plates. To perform the assay for genotype 2a (with M31 present) or 2b, HCV 2a Rluc or 2b Rluc cells (both with M31 present) harboring a dicistronic NS5A chimeric genotype 2a JFH-1 replicon that encodes a RLuc reporter and either genotype 2a J6 strain NS5A gene or genotype 2b MD2b-1 NS5A gene (based on Los Alamos HCV database isolates, both with M31 present) respectively, were dispensed into 384-well plates. To perform the assay for genotype 3 and 4, HCV 3a RLuc or 4a Rluc cells harboring a dicistronic NS5A chimeric genotype 1b Con1 replicon that encodes a RLuc reporter and either a consensus genotype 3a NS5A gene or genotype 4a NS5A gene (based on Los Alamos HCV database isolates) respectively, were dispensed into 384-well plates. Compounds were re-suspended in DMSO at a concentration of 10 mM and serially diluted in DMSO either manually or using an automated pipeting instrument. Serially diluted compounds were mixed with cell culture media and added to the seeded cells. […] 72 hours later, cells were lysed and Renilla luciferase activity quantified as recommended by the manufacturer (Promega-Madison, Wis.). Non-linear regression was performed to calculate EC50 values.

For assay [2], the system named is HCV 1b RLuc cells (dicistronic genotype 1b Con1 replicon, RLuc reporter). The procedure: as §1
Assay [3] has as its system HCV 3a RLuc cells (NS5A chimeric genotype 1b Con1 replicon with consensus genotype 3a NS5A gene). The procedure:
as §1

Assay [4] concerns HCV 2a JFH-1 Rluc cells (dicistronic genotype 2a JFH-1 replicon, RLuc reporter). The following applies: genotype 2a JFH-1 replicon, RLuc reporter, read-out: 2a JFH. As to the method:
as §1
In general terms: Replicon systems follow genome replication, usually without infectious particles.

Where [5] appears, read: Hepatitis C virus, read-out: 1b (nM).
The mark [6] stands for this setting: Hepatitis C virus, read-out: 3a, genotype 3a NS5A chimeric 1b Con1 replicon.
Setting [7] is: read-out: 3a, genotype 3a NS5A chimeric 1b Con1 replicon.

`COC(=O)N[C@H](C(=O)N1CCC[C@H]1c1ncc(-c2ccc(-c3ccc4cc(-c5cnc([C@@H]6CCCN6C(=O)C(c6ccccc6)N6CCCC6)[nH]5)ccc4c3)cc2)[nH]1)C(C)C` (stereo partly shown) [Example 125]: the EC50 was 1 to 999 pM in assay [1] (Hepatitis C virus), 0.032 nM in assay [2] (setting [5]), 1 to 990 pM in assay [3] (setting [6]) and 1 to 999 pM in assay [4] (Hepatitis C virus).
Turning to `COC(=O)N[C@@H](CC(F)F)C(=O)N1CCC[C@H]1c1ncc(-c2ccc3cc(-c4ccc(-c5cnc([C@@H]6CCCN6C(=O)[C@H](NC(=O)OC)c6ccccc6)[nH]5)cc4)ccc3c2)[nH]1` [Example 127], the EC50 in assay [1] (Hepatitis C virus) is 1 to 999 pM; in assay [2] (setting [5]), 0.006 nM; in assay [3] (setting [6]), 1 to 990 pM; in assay [4] (Hepatitis C virus), 1 to 999 pM.
As for `COC(=O)N[C@H](C(=O)N1CCC[C@H]1c1ncc(-c2ccc3cc(-c4ccc(-c5cnc([C@@H]6C[C@H](C)CN6C(=O)[C@H](NC(=O)OC)c6ccccc6)[nH]5)cc4)ccc3c2)[nH]1)C(C)C` [Example 130], the EC50 in assay [1] (Hepatitis C virus) was 1 to 999 pM; in assay [2] (setting [5]), 0.006 nM; in assay [3] (setting [6]), 1 to 990 pM; in assay [4] (Hepatitis C virus) it was 1 to 999 pM.
For the compound `COC(=O)N[C@H](C(=O)C1CCSC1c1ncc(-c2ccc(-c3ccc4cc(-c5cnc([C@@H]6CCCN6C(=O)[C@H](NC(=O)OC)c6ccccc6)[nH]5)ccc4c3)cc2)[nH]1)C(C)C` (stereo partly shown) [Example 131], the EC50 is 1 to 999 pM in assay [1] (Hepatitis C virus), 0.009 nM in assay [2] (setting [5]), 1 to 990 pM in assay [3] (setting [6]) and 1 to 999 pM in assay [4] (Hepatitis C virus).
For `COC(=O)N[C@H](C(=O)N1C[C@H](C)C[C@H]1c1ncc(-c2ccc3cc(-c4ccc(-c5cnc([C@@H]6CCCN6C(=O)[C@H](NC(=O)OC)c6ccccc6)[nH]5)cc4)ccc3c2)[nH]1)C(C)C` [Example 132], the EC50 was 1 to 999 pM in assay [1] (Hepatitis C virus), 0.003 nM in assay [2] (setting [5]), 1 to 990 pM in assay [3] (setting [6]) and 1 to 999 pM in assay [4] (Hepatitis C virus).
For the compound `COC(=O)N[C@H](C(=O)N1CCC[C@H]1c1ncc(-c2ccc3cc(-c4ccc(-c5cnc([C@@H]6CCCN6C(=O)C(c6ccccc6)N(C)C)[nH]5)cc4)ccc3c2)[nH]1)C(C)C` (stereo partly shown) [Example 134], the EC50 was 1 to 999 pM in assay [1] (Hepatitis C virus), 0.007 nM in assay [2] (setting [5]), 1 to 990 pM in assay [3] (setting [6]) and 1 to 999 pM in assay [4] (Hepatitis C virus).
With `COC(=O)N[C@H](C(=O)N1C[C@H](C#N)C[C@H]1c1ncc(-c2ccc3cc(-c4ccc(-c5cnc([C@@H]6CCCN6C(=O)[C@H](NC(=O)OC)c6ccccc6)[nH]5)cc4)ccc3c2)[nH]1)C(C)C` [Example 135], the EC50 in assay [1] (Hepatitis C virus) is 1 to 999 pM; in assay [2] (setting [5]) it was 0.006 nM; in assay [3] (setting [6]), greater than 5000 pM; in assay [4] (Hepatitis C virus), 1 to 999 pM.
Take `COC(=O)N[C@H](C(=O)N1C[C@@H](C#N)C[C@H]1c1ncc(-c2ccc3cc(-c4ccc(-c5cnc([C@@H]6CCCN6C(=O)[C@@H](c6ccccc6)N(C)C)[nH]5)cc4)ccc3c2)[nH]1)C(C)C` [Example 137]: the EC50 is 1 to 999 pM in assay [1] (Hepatitis C virus), 0.012 nM in assay [2] (setting [5]), 1 to 990 pM in assay [3] (setting [6]) and 1 to 999 pM in assay [4] (Hepatitis C virus).
For `CCN(CC)C(C(=O)N1CCC[C@H]1c1ncc(-c2ccc(-c3ccc4cc(-c5cnc([C@@H]6CCCN6C(=O)[C@@H](NC(=O)OC)C(C)C)[nH]5)ccc4c3)cc2)[nH]1)c1ccccc1` (stereo partly shown) [Example 138], the EC50 is 1 to 999 pM in assay [1] (Hepatitis C virus), 0.006 nM in assay [2] (setting [5]), 1 to 990 pM in assay [3] (setting [6]) and 1 to 999 pM in assay [4] (Hepatitis C virus).
With `COC(=O)N[C@H](C(=O)N1CCC[C@H]1c1ncc(-c2ccc3cc(-c4ccc(-c5cnc([C@@H]6C[C@@H](F)CN6C(=O)[C@H](NC(=O)OC)c6ccccc6)[nH]5)cc4)ccc3c2)[nH]1)C(C)C` [Example 139], the EC50 was 1 to 999 pM in assay [1] (Hepatitis C virus), 0.004 nM in assay [2] (setting [5]), 1 to 990 pM in assay [3] (setting [6]) and 1000 to 44000 pM in assay [4] (Hepatitis C virus).
In the same order, the values of `COC(=O)N[C@H](C(=O)N1CCC[C@H]1c1ncc(-c2nc3cc4sc(-c5cnc([C@@H]6CCCN6C(=O)[C@@H](NC(=O)OC)C(C)C)[nH]5)nc4cc3s2)[nH]1)C(C)C` [Example 141] are 1000 to 44000 pM, 0.181 nM, greater than 5000 pM and 1000 to 44000 pM.
With `COC(=O)N[C@H](C(=O)N1CCC[C@H]1c1ncc(-c2ccc3cc(-c4ccc5c(c4)CCc4nc([C@@H]6CCCN6C(=O)[C@H](NC(=O)OC)c6ccccc6)[nH]c4-5)ccc3c2)[nH]1)C(C)C` [Example 142], the EC50 was 1 to 999 pM in assay [1] (Hepatitis C virus), 0.013 nM in assay [2] (setting [5]), 1 to 990 pM in assay [3] (setting [6]) and 1 to 999 pM in assay [4] (Hepatitis C virus).
With `COC(=O)NC(C(=O)N1CCC[C@@]1(F)c1ncc(-c2ccc(-c3ccc4cc(-c5cnc([C@@H]6CCCN6C(=O)[C@@H](NC(=O)OC)C(C)C)[nH]5)ccc4c3)cc2)[nH]1)c1ccc2c(c1)OCO2` (stereo partly shown) [Example 143], the EC50 in assay [1] (Hepatitis C virus) was 1 to 999 pM; in assay [2] (setting [5]) it was 0.025 nM; in assay [3] (setting [6]), greater than 5000 pM; in assay [4] (Hepatitis C virus) it was 1000 to 44000 pM.
Consider `COC(=O)N[C@H](C(=O)N1C[C@H](C#N)C[C@H]1c1ncc(-c2ccc3cc(-c4ccc(-c5cnc([C@@H]6CCCN6C(=O)[C@@H](c6ccccc6)N(C)C)[nH]5)cc4)ccc3c2)[nH]1)C(C)C` [Example 144], for which the EC50 in assay [1] (Hepatitis C virus) was 1 to 999 pM; in assay [2] (setting [5]), 0.013 nM; in assay [3] (setting [6]), 1 to 990 pM; in assay [4] (Hepatitis C virus), 1 to 999 pM.
As for `COC(=O)N[C@H](C(=O)N1CCC[C@H]1c1ncc(-c2ccc3cc(-c4ccc(-c5cnc([C@@H]6C[C@@H](C#N)CN6C(=O)[C@H](NC(=O)OC)c6ccccc6)[nH]5)cc4)ccc3c2)[nH]1)C(C)C` [Example 145], the EC50 in assay [1] (Hepatitis C virus) is 1 to 999 pM; in assay [2] (setting [5]) it was 0.01 nM; in assay [3] (setting [6]) it was 1000 to 4990 pM; in assay [4] (Hepatitis C virus) it was 1 to 999 pM.
On to `COC(=O)NC(C(=O)N1CCC[C@H]1c1ncc(-c2ccc(-c3ccc4cc(-c5cnc([C@@H]6CCCN6C(=O)[C@@H](NC(=O)OC)C(C)C)[nH]5)ccc4c3)cc2)[nH]1)c1cccc(C(F)(F)F)c1` (stereo partly shown) [Example 146], for which the EC50 in assay [1] (Hepatitis C virus) was 1000 to 44000 pM; in assay [2] (setting [5]), 0.048 nM; in assay [3] (setting [6]) it was greater than 5000 pM; in assay [4] (Hepatitis C virus), 1000 to 44000 pM.
For the compound `COC(=O)N[C@H](C(=O)N1C[C@H](C)C[C@H]1c1ncc(-c2ccc3cc(-c4ccc(-c5cnc([C@@H]6CCCN6C(=O)[C@H](NC(=O)OC)c6ccccc6OC)[nH]5)cc4)ccc3c2)[nH]1)C(C)C` [Example 147], the EC50 is 1 to 999 pM in assay [1] (Hepatitis C virus), 0.012 nM in assay [2] (setting [5]), 1 to 990 pM in assay [3] (setting [6]) and 1 to 999 pM in assay [4] (Hepatitis C virus).
As for `COC(=O)N[C@H](C(=O)N1CCC[C@H]1c1ncc(-c2ccc3cc(-c4ccc(-c5cnc([C@@H]6CCCN6C(=O)[C@H](NC(=O)OC)c6ccccc6F)[nH]5)cc4)ccc3c2)[nH]1)C(C)C` [Example 148], the EC50 in assay [1] (Hepatitis C virus) was 1 to 999 pM; in assay [2] (read-out: 1b), 0.02 nM; in assay [3] (setting [7]) it was 1000 to 4990 pM; in assay [4] (Hepatitis C virus), 1 to 999 pM.
With `COC(=O)N[C@H](C(=O)N1CCC[C@H]1c1ncc(-c2ccc3cc(-c4ccc(-c5cnc([C@@H]6CCCN6C(=O)[C@H](NC(=O)OC)c6ccccc6F)[nH]5)cc4)ccc3c2)[nH]1)C(C)C` [Example 149], the EC50 in assay [1] was 1 to 999 pM; in assay [2] (read-out: 1b) it was 0.005 nM; in assay [3] (setting [7]), 1 to 990 pM; in assay [4], 1 to 999 pM.
As for `COC(=O)N[C@H](C(=O)N1CCC[C@H]1c1ncc(-c2ccc3cc(-c4ccc(-c5cnc([C@@H]6CCCN6C(=O)[C@H](NC(=O)OC)c6ccccc6C)[nH]5)cc4)ccc3c2)[nH]1)C(C)C` [Example 150], the EC50 in assay [1] (Hepatitis C virus) was 1 to 999 pM; in assay [2] (setting [5]), 0.006 nM; in assay [3] (setting [6]), 1 to 990 pM; in assay [4] (Hepatitis C virus), 1 to 999 pM.
As for `COC(=O)N[C@H](C(=O)N1CCC[C@H]1c1ncc(-c2ccc3cc(-c4ccc(-c5cnc([C@@H]6CCCN6C(=O)C(c6ccc7c(c6)OCO7)N(C)C)[nH]5)cc4)ccc3c2)[nH]1)C(C)C` (stereo partly shown) [Example 151], the EC50 was 1000 to 44000 pM in assay [1] (Hepatitis C virus), 0.038 nM in assay [2] (setting [5]), 1000 to 4990 pM in assay [3] (setting [6]) and 1000 to 44000 pM in assay [4] (Hepatitis C virus).
On to `COC(=O)N[C@H](C(=O)N1CCC[C@H]1c1ncc(-c2ccc3cc(-c4ccc(-c5cnc([C@]6(F)CCCN6C(=O)[C@H]6c7ccccc7CCN6C)[nH]5)cc4)ccc3c2)[nH]1)C(C)C` [Example 152], for which the EC50 was greater than 44000 pM in assay [1] (Hepatitis C virus), 0.751 nM in assay [2] (setting [5]), 1000 to 4990 pM in assay [3] (setting [6]) and greater than 44000 pM in assay [4] (Hepatitis C virus).
